From patent US8791155B2, “Chroman derivatives” (Edison Pharmaceuticals, Inc., priority 2003, dated 2014)

molecular target: T1, porcine leukocyte 12/15-lipoxygenase (Sus scrofa, UniProt P16469); assay: 12/15-Lipoxygenase enzyme assay; type: biochemical; details: 70 μM arachidonic acid, pH 7.4, 10 minute incubation; read-out: IC50, inhibition of 12/15-Lipoxygenase
T1 construct: purchased Cayman 60300
T1 sequence (P16469 1-663): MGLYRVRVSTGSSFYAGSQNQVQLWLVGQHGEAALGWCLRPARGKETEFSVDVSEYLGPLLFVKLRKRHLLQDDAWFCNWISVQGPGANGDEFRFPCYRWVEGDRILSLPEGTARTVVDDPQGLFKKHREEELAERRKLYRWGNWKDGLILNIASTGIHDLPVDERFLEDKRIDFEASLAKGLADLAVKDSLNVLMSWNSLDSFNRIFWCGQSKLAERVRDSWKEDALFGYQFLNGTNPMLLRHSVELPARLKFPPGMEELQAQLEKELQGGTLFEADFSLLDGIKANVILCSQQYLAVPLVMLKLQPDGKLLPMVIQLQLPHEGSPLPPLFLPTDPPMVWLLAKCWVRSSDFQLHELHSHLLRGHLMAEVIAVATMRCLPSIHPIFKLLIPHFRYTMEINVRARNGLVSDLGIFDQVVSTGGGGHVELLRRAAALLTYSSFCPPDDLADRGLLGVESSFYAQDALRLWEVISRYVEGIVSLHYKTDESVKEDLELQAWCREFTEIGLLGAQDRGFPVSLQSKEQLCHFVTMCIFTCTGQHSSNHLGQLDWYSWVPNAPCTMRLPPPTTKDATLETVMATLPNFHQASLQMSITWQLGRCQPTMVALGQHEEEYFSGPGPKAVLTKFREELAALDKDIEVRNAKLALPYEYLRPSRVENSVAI
From the text: In vitro evaluation of the ability of a composition to inhibit the enzymes 5-lipoxygenase, 15-lipoxygenase, or 12/15 lipoxygenase as described in Walidge, N. B. et al Anal. Biochem., 231: 354-358 (1995) using a high throughput colorimetric method; as well as in vitro evaluation of inhibiting LTB4 is described in Examples.
This procedure was used for measuring the enzymatic activity of porcine leukocyte 12/15-lipoxygenase using a colorimetric method based on the ferric oxidation of xylenol orange.
• 96 well flat bottom microfilter plates (VWR, Catalog #62402-933 9295) • Lipoxygenase screening assay buffer (Cayman, Catalog #760710) • Porcine leukocyte 12/15-lipoxygenase (Cayman, Catalog #60300) • Arachidonic Acid (Sigma, Catalog #A3555) • Xylenol orange tetrasodium salt (Aldrich, Catalog #227854) • Iron (II) sulfate heptahydrate (Sigma, Catalog #F7002) • Sulfuric acid (95-98%) [18M] • Methanol Procedure
Porcine Leukocyte 12/15-lipoxygenase (Cayman Cat #60300) was used in this assay. Test compound and/or vehicle was added to 1.3 U 12/15-lipoxygenase in 50 mM Tris-HCl buffer, pH 7.4. The reaction was initiated by addition of 70 μM arachidonic acid in Tris-HCl buffer, pH 7.4, and terminated after a 10 minute incubation at room temperature by addition of FOX reagent (25 mM sulphuric acid, 100 μM xylenol orange, 100 μM iron (II) sulphate, methanol:water 9:1). The yellow color of acidified xylenol orange was converted to a blue color by the lipid hydroperoxide-mediated oxidation of Fe 2+ ions and the interaction of the resulting Fe 3+ ions with the dye. The complex was allowed to form during a 1 hour incubation at room temperature with shaking. Absorbance of the Fe 3+ complex was then measured at […] using a spectrophotometer.
Negative controls contained enzyme during the incubation step but substrate was not added until after the FOX reagent.
Compounds are screened at 5 concentrations in triplicate starting at 10 μM

**Q.** Which IC50 does the source give for `C=CCSCc1c(O)c(C)c(C)c2c1CCC(C)(C)O2` [5-Allylsulfanylmethyl-2,2,7,8-tetramethyl-chroman-6-ol] here?
**A.** Its IC50 is less than 1 µM.

**Q.** For `Cc1c(C)c2c(c(C)c1O)CCC(C)(C=C(Br)Br)O2` (stereo not drawn) [2-(2,2-Dibromo-vinyl)-2,5,7,8-tetramethyl-chroman-6-ol], which IC50 is on record?
**A.** Its IC50 is less than 1 µM.

**Q.** Which IC50 does the source give for `COC(=O)c1ccc(-c2c(O)c(C)c(C)c3c2CCC(C)(C)O3)cc1` [4-(6-Hydroxy-2,2,7,8-tetramethyl-chroman-5-yl)-benzoic acid methyl ester] here?
**A.** Its IC50 is less than 1 µM.
